# Key:
# [1] = system: E. coli expressing the Class A Extended Spectrum Beta-Lactamase (ESBL) CTX-M-15; experiment: Broth microdilution MIC assay with ceftazidime, E. coli CTX-M-15; type: cell-based; settings: Fixed CAZ (ceftazidime) 4 μg/mL; E. coli ESBL4 CTX-M-15
# Method in brief: (§1)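 Test compounds in 2-fold dilutions (16 to 0.125 μg/mL final) in CAMHB were combined with a β-lactam at a static 4 μg/ml final. Plates were inoculated per CLSI broth microdilution with the β-lactamase-producing strain (pre-grown 3-5 h) and incubated 16-20 h at 37° C. MIC of test compound was read visually.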
# [2] = target: T1, SHV-5 (Klebsiella pneumoniae, UniProt P0A3M1); experiment: β-lactamase enzyme inhibition assay, SHV-5 (cefotaxime substrate); type: biochemical
# T1 construct: made in house; host or cells: E. coli BL21(DE3)
# Method in brief: (§2)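 Native untagged β-lactamases were expressed in E. coli BL21(DE3), then purified by cation exchange and gel filtration. Enzyme was preincubated with inhibitor for 15 min at 37 °C before substrate was added. Imipenem (A300) served KPC-2 and cefotaxime (A260) served SHV-5. IC50 was taken from initial hydrolysis rates relative to no-inhibitor controls.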
# [3] = system: K. pneumoniae producing the Class D carbapenemase OXA-48; experiment: Broth microdilution MIC assay with meropenem, K. pneumoniae OXA-48; type: cell-based; settings: Fixed Mero (meropenem) 4 μg/mL; K. p. 11978 OXA-48
# Method in brief: as §1
# [4] = target: T2, KPC-2 (Klebsiella pneumoniae, UniProt Q9F663); experiment: β-lactamase enzyme inhibition assay, KPC-2 (imipenem substrate); type: biochemical; settings: Class A; imipenem substrate, 300 nm; read-out: KPC-2
# T2 construct: made in house; host or cells: E. coli BL21(DE3)
# Method in brief: as §2
# [5] = system: K. pneumoniae expressing the Class A carbapenemase KPC-2; experiment: Broth microdilution MIC assay with meropenem, K. pneumoniae KPC-2; type: cell-based; settings: Fixed Mero (meropenem) 4 μg/mL; K. p. 156319 KPC-3
# Method in brief: as §1
# [6] = system: K. pneumoniae expressing the class A carbapenemase KPC-2 and the class B carbapenemase VIM-4; experiment: Broth microdilution MIC assay with meropenem, K. pneumoniae KPC-2 and VIM-4; type: cell-based; settings: Fixed Mero (meropenem) 4 μg/mL; K. p. A-1797 KPC-2 VIM-4
# Method in brief: as §1
# [7] = system: E. cloacae expressing the Class C P99; experiment: Broth microdilution MIC assay with ceftazidime, E. cloacae P99; type: cell-based; settings: Fixed CAZ (ceftazidime) 4 μg/mL; E. cl. 144200 p99 AmpC
# Method in brief: as §1
# [8] = system: P. aeruginosa expressing the Class B carbapenemase VIM-2; experiment: Broth microdilution MIC assay with meropenem, P. aeruginosa VIM-2; type: cell-based; settings: Fixed Mero (meropenem) 4 μg/mL; P. aerug. 2775 VIM-2
# Method in brief: as §1
# [9] = target: T3, VIM-2 (Escherichia coli, UniProt Q5U7L7); experiment: β-lactamase enzyme inhibition assay, VIM-2 (nitrocefin substrate); type: biochemical; settings: Class B; nitrocefin substrate, 486 nm; read-out: VIM-2
# T3 construct: made in house; host or cells: E. coli BL21(DE3)
# Method in brief: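 Purified VIM-2 preincubated with inhibitor for 15 min at 37° C, then nitrocefin (100 μM final) added and absorbance at 486 nm followed for 10 min. Maximum hydrolysis rates compared with inhibitor-free controls; IC50 fitted from percent inhibition across inhibitor concentrations.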
# [10] = target: T4, AmpC (Enterobacter cloacae, UniProt P05364); experiment: β-lactamase enzyme inhibition assay, p99 AmpC (nitrocefin substrate); type: biochemical
# T4 construct: made in house; host or cells: E. coli BL21(DE3)
# Method in brief: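 Native untagged β-lactamases were expressed in E. coli BL21(DE3), then purified by cation exchange and gel filtration. Enzyme was preincubated with inhibitor for 15 min at 37 °C before substrate was added. IC50 was taken from initial hydrolysis rates relative to no-inhibitor controls.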
# [11] = target: OXA-48 (UniProt Q6XEC0); experiment: β-lactamase enzyme inhibition assay, Class D oxacillinase; type: biochemical; settings: read-out: OXA-48
# T2 sequence (Q9F663 25-293, looked up): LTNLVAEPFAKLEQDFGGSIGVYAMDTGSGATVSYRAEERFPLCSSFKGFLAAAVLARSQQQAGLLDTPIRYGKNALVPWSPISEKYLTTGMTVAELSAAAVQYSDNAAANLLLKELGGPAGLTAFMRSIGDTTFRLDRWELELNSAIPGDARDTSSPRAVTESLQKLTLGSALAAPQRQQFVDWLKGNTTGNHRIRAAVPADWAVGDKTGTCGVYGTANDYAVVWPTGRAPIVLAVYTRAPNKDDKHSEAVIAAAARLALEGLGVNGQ
# T4 sequence (P05364 21-381): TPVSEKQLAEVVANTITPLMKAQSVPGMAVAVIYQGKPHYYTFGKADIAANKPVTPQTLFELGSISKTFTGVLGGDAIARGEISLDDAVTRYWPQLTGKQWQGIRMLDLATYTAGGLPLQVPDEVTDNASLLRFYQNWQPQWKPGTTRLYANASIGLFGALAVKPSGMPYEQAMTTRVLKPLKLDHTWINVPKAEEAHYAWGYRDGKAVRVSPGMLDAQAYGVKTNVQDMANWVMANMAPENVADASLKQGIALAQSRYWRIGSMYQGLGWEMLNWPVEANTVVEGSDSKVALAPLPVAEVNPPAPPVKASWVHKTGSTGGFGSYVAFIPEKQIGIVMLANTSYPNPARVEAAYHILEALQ
# T1 sequence (P0A3M1 22-286): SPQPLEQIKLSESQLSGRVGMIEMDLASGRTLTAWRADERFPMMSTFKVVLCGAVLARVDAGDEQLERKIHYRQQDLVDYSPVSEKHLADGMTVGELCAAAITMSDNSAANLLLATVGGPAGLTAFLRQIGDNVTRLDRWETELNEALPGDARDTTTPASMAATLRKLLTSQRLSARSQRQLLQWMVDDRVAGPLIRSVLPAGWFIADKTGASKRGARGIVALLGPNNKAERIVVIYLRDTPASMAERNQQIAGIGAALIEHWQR
SMILES,MIC (μg/mL) of Exemplary Compounds in presence of fixed β-lactams: E. coli ESBL4 CTX-M-15 [1],IC50 [2] [nM],MIC (μg/mL) of Exemplary Compounds in presence of fixed β-lactams: K. p. 11978 OXA-48 [3],IC50 [4] [nM],MIC (μg/mL) of Exemplary Compounds in presence of fixed β-lactams: K. p. 156319 KPC-3 [5],MIC (μg/mL) of Exemplary Compounds in presence of fixed β-lactams: K. p. A-1797 KPC-2 VIM-4 [6],MIC (μg/mL) of Exemplary Compounds in presence of fixed β-lactams: E. cl. 144200 p99 AmpC [7],MIC (μg/mL) of Exemplary Compounds in presence of fixed β-lactams: P. aerug. 2775 VIM-2 [8],IC50 [9] [nM],IC50 [10] [nM],IC50 [11] [nM]
"NCc1nnn(CC(=O)N[C@H]2Cc3cccc(C(=O)O)c3OB2O)c1Cl [Example 107, (R)-3-(2-(4-(aminomethyl)-5-chloro-1H-1,2,3-triazol-1-yl)acetamido)-2-hydroxy-3,4-dihydro-2H-benzo[e][1,2]oxaborinine-8-carboxylic acid]",C (C represents an MIC of <1 μg/mL),100 to 1000,B (B represents an MIC between 1 and 16 μg/mL inclusive),< 100,C (C represents an MIC of <1 μg/mL),C (C represents an MIC of <1 μg/mL),B (B represents an MIC between 1 and 16 μg/mL inclusive),C (C represents an MIC of <1 μg/mL),< 100,< 100,< 100
"NCc1nnn(CC(=O)N[C@H]2Cc3cccc(C(=O)O)c3OB2O)c1-c1ccsc1 [Example 108, (R)-3-(2-(4-(aminomethyl)-5-(thiophen-3-yl)-1H-1,2,3-triazol-1-yl)acetamido)-2-hydroxy-3,4-dihydro-2H-benzo[e][1,2]oxaborinine-8-carboxylic acid]",C (C represents an MIC of <1 μg/mL),100 to 1000,B (B represents an MIC between 1 and 16 μg/mL inclusive),< 100,B (B represents an MIC between 1 and 16 μg/mL inclusive),C (C represents an MIC of <1 μg/mL),B (B represents an MIC between 1 and 16 μg/mL inclusive),C (C represents an MIC of <1 μg/mL),< 100,< 100,< 100
"NCCCC[C@@H](C(=O)N[C@H]1Cc2cccc(C(=O)O)c2OB1O)n1cc(CN)nn1 [Example 113, (R)-3-((S)-6-amino-2-(4-(aminomethyl)-1H-1,2,3-triazol-1-yl)hexanamido)-2-hydroxy-3,4-dihydro-2H-benzo[e][1,2]oxaborinine-8-carboxylic acid]",C (C represents an MIC of <1 μg/mL),1000 to 10000,A (A represents an MIC>16 μg/mL),100 to 1000,B (B represents an MIC between 1 and 16 μg/mL inclusive),C (C represents an MIC of <1 μg/mL),C (C represents an MIC of <1 μg/mL),C (C represents an MIC of <1 μg/mL),< 100,< 100,100 to 1000
"NCc1cn(C[C@H](N)C(=O)N[C@H]2Cc3cccc(C(=O)O)c3OB2O)nn1 [Example 114, (R)-3-((S)-2-amino-3-(4-(aminomethyl)-1H-1,2,3-triazol-1-yl)propanamido)-2-hydroxy-3,4-dihydro-2H-benzo[e][1,2]oxaborinine-8-carboxylic acid]",C (C represents an MIC of <1 μg/mL),10000 to 100000,B (B represents an MIC between 1 and 16 μg/mL inclusive),100 to 1000,C (C represents an MIC of <1 μg/mL),B (B represents an MIC between 1 and 16 μg/mL inclusive),C (C represents an MIC of <1 μg/mL),C (C represents an MIC of <1 μg/mL),1000 to 10000,< 100,1000 to 10000
"CSCC[C@@H](C(=O)N[C@H]1Cc2cccc(C(=O)O)c2OB1O)n1cc(CN)nn1 [Example 115, (R)-3-((S)-2-(4-(aminomethyl)-1H-1,2,3-triazol-1-yl)-4-(methylthio)butanamido)-2-hydroxy-3,4-dihydro-2H-benzo[e][1,2]oxaborinine-8-carboxylic acid]",C (C represents an MIC of <1 μg/mL),100 to 1000,B (B represents an MIC between 1 and 16 μg/mL inclusive),100 to 1000,B (B represents an MIC between 1 and 16 μg/mL inclusive),B (B represents an MIC between 1 and 16 μg/mL inclusive),C (C represents an MIC of <1 μg/mL),B (B represents an MIC between 1 and 16 μg/mL inclusive),100 to 1000,< 100,1000 to 10000
"NCCn1cnnc1CC(=O)N[C@H]1Cc2cccc(C(=O)O)c2OB1O [Example 117, (R)-3-(2-(4-(2-aminoethyl)-4H-1,2,4-triazol-3-yl)acetamido)-2-hydroxy-3,4-dihydro-2H-benzo[e][1,2]oxaborinine-8-carboxylic acid]",C (C represents an MIC of <1 μg/mL),< 100,B (B represents an MIC between 1 and 16 μg/mL inclusive),100 to 1000,C (C represents an MIC of <1 μg/mL),B (B represents an MIC between 1 and 16 μg/mL inclusive),C (C represents an MIC of <1 μg/mL),C (C represents an MIC of <1 μg/mL),100 to 1000,< 100,100 to 1000
"NCCn1cnc(CC(=O)N[C@H]2Cc3cccc(C(=O)O)c3OB2O)n1 [Example 118, (R)-3-(2-(1-(2-aminoethyl)-1H-1,2,4-triazol-3-yl)acetamido)-2-hydroxy-3,4-dihydro-2H-benzo[e][1,2]oxaborinine-8-carboxylic acid]",C (C represents an MIC of <1 μg/mL),100 to 1000,B (B represents an MIC between 1 and 16 μg/mL inclusive),100 to 1000,C (C represents an MIC of <1 μg/mL),B (B represents an MIC between 1 and 16 μg/mL inclusive),C (C represents an MIC of <1 μg/mL),C (C represents an MIC of <1 μg/mL),1000 to 10000,< 100,100 to 1000

# Source: US11046716B2, “Beta-lactamase inhibitors” (priority 2015, dated 2021)
